In patent US7348318B2, “α-Amino-N-(diaminophosphinyl)lactam derivatives” (priority 2002, dated 2008):
Counter-ions that a name gives are not always drawn.

Experiments:
dipeptidyl peptidase IV = target: T1, dipeptidyl peptidase IV (Rattus norvegicus, UniProt P14740); experiment: biochemical; details: glycyl·prolyl·β-naphthylamide, pH 7.2, 37° C., 1 hour, read-out: Dipeptidyl peptidase IV 50% inhibition activity value (converted)
T1 construct: partially purified from rat kidney homogenate by ammonium sulfate fractionation; from tissue; host or cells: rat kidney

[1] = test system: ICR strain male mice (Crj:CD-1); experiment: Test for investigating the increase of leukocytes and the decrease of platelets in normal mice; type: in vivo; details: for Number of platelets / number of leukocytes: blood drawn day after last administration
Procedure: ICR strain male mice (Crj:CD-1) aged 8 weeks were used in the test. The animals were divided into 5 groups of 3 to 4 animals each. The following were intravenously and repeatedly administered to the groups, respectively, for 5 days; a first group: physiological saline as solvent, a second group: the compound of Example 45 (hydrochloride of the compound of Example 1) (10 mg/kg/day), a third group: the compound of Example 45 (50 mg/kg/day), a fourth group: the compound of Example 45 (250 mg/kg/day), and a fifth group: sulphostin (WO 99/25719 and JP-A-2000-327689; (3S, PR)-3-amino-1-amino(sulfoamino)phosphinyl-2-piperidone) (50 mg/kg/day). On the day subsequent to the last day in the administration period, blood was drawn from the abdominal aorta under anesthesia and the number of leukocytes and the number of platelets were measured.

[2] = test system: ICR strain male mice (Crj:CD-1); experiment: Test for evaluating efficacy in drug-induced leukopenia (cyclophosphamide); type: in vivo; details: for number of leukocytes: cyclophosphamide 200 mg/kg i.p. Day 0
Procedure: The efficacy of the compound of Example 1 in drug-induced leukopenia was evaluated according to the method of Okabe et al. (Yakuri to Chiryo (Pharmacology and Treatment), Vol. 19, No. 6, p. 55, 1991).
ICR strain male mice (Crj:CD-1) aged 8 weeks were used in the test. The animals were divided into three groups of 3 or 4 animals each. On Day 0, cyclophosphamide was intraperitoneally administered once to all the groups in a dose of 200 mg/kg. From the next day, the following were intravenously and repeatedly administered to the groups, respectively, for 5 days (Days 1 to 5); a first group (a control group): physiological saline, a second group: the compound of Example 1 (30 mg/kg/day), and a third group: the compound of Example 1 (100 mg/kg/day). Blood was drawn from the orbital vein on Day 0 (before the administration of cyclophosphamide) and Days 2, 4, 6, 8 and 10, and the number of leukocytes was periodically measured to investigate the leukocyte-increasing effect of the compound of Example 1 on leukopenia induced by cyclophosphamide.

[3] = normal mice, 10 mg/kg/day i.v. for 5 days
[4] = normal mice, 50 mg/kg/day i.v. for 5 days
[5] = normal mice, 250 mg/kg/day i.v. for 5 days

T1 sequence (P14740 whole entry): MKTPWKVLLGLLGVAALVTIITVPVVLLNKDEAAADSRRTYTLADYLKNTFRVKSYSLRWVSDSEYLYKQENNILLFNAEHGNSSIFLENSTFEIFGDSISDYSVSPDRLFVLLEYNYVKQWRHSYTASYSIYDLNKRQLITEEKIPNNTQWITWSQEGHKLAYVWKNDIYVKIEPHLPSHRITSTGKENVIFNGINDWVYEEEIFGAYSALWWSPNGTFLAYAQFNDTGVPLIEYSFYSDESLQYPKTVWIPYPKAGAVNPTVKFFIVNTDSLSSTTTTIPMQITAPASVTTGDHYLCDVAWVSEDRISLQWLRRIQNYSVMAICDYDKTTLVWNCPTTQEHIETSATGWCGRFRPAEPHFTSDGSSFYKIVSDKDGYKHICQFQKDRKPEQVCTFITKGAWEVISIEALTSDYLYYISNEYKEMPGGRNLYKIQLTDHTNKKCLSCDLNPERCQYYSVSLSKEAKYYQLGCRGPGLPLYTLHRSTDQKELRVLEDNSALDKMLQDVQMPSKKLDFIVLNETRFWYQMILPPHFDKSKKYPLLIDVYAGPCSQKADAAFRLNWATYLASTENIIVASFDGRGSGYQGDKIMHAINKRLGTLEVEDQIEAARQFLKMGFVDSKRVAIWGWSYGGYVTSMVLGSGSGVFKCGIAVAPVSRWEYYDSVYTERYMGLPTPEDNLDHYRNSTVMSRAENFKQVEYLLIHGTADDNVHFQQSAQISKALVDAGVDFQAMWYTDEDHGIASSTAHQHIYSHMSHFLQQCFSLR

Structure (SMILES): N[C@H]1CCCN(P(N)(=O)NC(=O)C2CCCCC2)C1=O (mixture of isomers) [Example 55, (3S, P (SR))-3-amino-1-amino(cyclohexanecarbonylamino)phosphinyl-2-piperidone]
- IC50 (dipeptidyl peptidase IV): 1590 nM

Structure (SMILES): Cl.N[C@H]1CCCN(P(N)(N)=O)C1=O [Example 45, (3S)-3-amino-1-diaminophosphinyl-2-piperidone hydrochloride]
- factor by which the number of leukocytes is larger than that of the control group ([1]; 10 mg/kg/day group): 4.2
- factor by which the number of leukocytes is larger than that of the control group ([1]; 50 mg/kg/day group): 3.8
- factor by which the number of leukocytes is larger than that of the control group ([1]; 250 mg/kg/day group): 6.7
- Number of platelets [1, 3]: 76.0 ± 7.8 ×10000/millimeter cube
- number of leukocytes [1, 3]: 25 ± 13 ×100/millimeter cube
- Number of platelets [1, 4]: 84.9 ± 8.3 ×10000/millimeter cube
- number of leukocytes [1, 4]: 23 ± 19 ×100/millimeter cube
- Number of platelets [1, 5]: 81.1 ± 8.0 ×10000/millimeter cube
- number of leukocytes [1, 5]: 40 ± 18 ×100/millimeter cube
- influence on the number of platelets (in words) ([1]; normal mice, all the groups (10, 50, 250 mg/kg/day)): did not decrease the number of platelets

Structure (SMILES): N[C@@H]1CCCN(P(N)(N)=O)C1=O [Example 42, (3R)-3-amino-1-diaminophosphinyl-2-piperidone]
- IC50 (dipeptidyl peptidase IV): 48.4 nM

Structure (SMILES): NP(N)(=O)N1CCC[C@H](NCc2ccco2)C1=O [Example 37, (3S)-3-furfurylamino-1-diaminophosphinyl-2-piperidone]
- IC50 (dipeptidyl peptidase IV): 7710 nM

Structure (SMILES): CC(=O)NP(N)(=O)N1CCC[C@H](N)C1=O (single isomer, unassigned) [Example 48, (3S, P (R or S))-3-amino-1-amino(acetylamino)phosphinyl-2-piperidone ½ fumarate]
- IC50 (dipeptidyl peptidase IV): 1620 nM

Structure (SMILES): CC(C)N[C@H]1CCCN(P(N)(N)=O)C1=O [Example 28, (3S)-3-isopropylamino-1-diaminophosphinyl-2-piperidone]
- IC50 (dipeptidyl peptidase IV): 17900 nM

Structure (SMILES): N[C@H]1CCCN(P(N)(=O)NC(=O)c2ccccc2)C1=O (mixture of isomers) [Example 39, (3S, P (RS))-3-amino-1-amino(benzoylamino)phosphinyl-2-piperidone]
- IC50 (dipeptidyl peptidase IV): 2400 nM

Structure (SMILES): N[C@H]1CCCN(P(N)(=O)NC(=O)COc2ccccc2)C1=O (mixture of isomers) [Example 57, (3S, P (SR))-3-amino-1-amino(phenoxyacetylamino)phosphinyl-2-piperidone]
- IC50 (dipeptidyl peptidase IV): 187 nM

Structure (SMILES): COc1ccc(C(=O)NP(N)(=O)N2CCC[C@H](N)C2=O)cc1 (mixture of isomers) [Example 61, (3S, P (SR))-3-amino-1-amino(4-methoxybenzoylamino)phosphinyl-2-piperidone]
- IC50 (dipeptidyl peptidase IV): 1070 nM

Structure (SMILES): CCCC(=O)NP(N)(=O)N1CCC[C@H](N)C1=O (mixture of isomers) [Example 51, (3S, P (SR))-3-amino-1-amino(n-butanoylamino)phosphinyl-2-piperidone]
- IC50 (dipeptidyl peptidase IV): 1140 nM

Structure (SMILES): CC(C)(C)CC(=O)NP(N)(=O)N1CCC[C@H](N)C1=O (mixture of isomers) [Example 53, (3S, P (SR))-3-amino-1-amino(t-butylacetylamino)phosphinyl-2-piperidone]
- IC50 (dipeptidyl peptidase IV): 1480 nM

Structure (SMILES): N[C@H]1CCCCN(P(N)(N)=O)C1=O [Example 43, (3S)-3-amino-1-diaminophosphinyl-2-perhydroazepinone]
- IC50 (dipeptidyl peptidase IV): 107 nM

Structure (SMILES): CCCN[C@H]1CCCN(P(N)(N)=O)C1=O [Example 25, (3S)-3-n-propylamino-1-diaminophosphinyl-2-piperidone]
- IC50 (dipeptidyl peptidase IV): 3670 nM

Structure (SMILES): N[C@H]1CCCN(P(N)(=O)Nc2ccccc2)C1=O (single isomer, unassigned) [Example 17, (3S, P (R or S))-3-amino-1-amino(phenylamino)phosphinyl-2-piperidone]
- IC50 (dipeptidyl peptidase IV): 5590 nM

Structure (SMILES): CN[C@H]1CCCN(P(N)(N)=O)C1=O [Example 22, (3S)-3-methylamino-1-diaminophosphinyl-2-piperidone]
- IC50 (dipeptidyl peptidase IV): 1410 nM

Structure (SMILES): NP(N)(=O)N1CCC[C@H](NCc2ccccc2)C1=O [Example 34, (3S)-3-benzylamino-1-diaminophosphinyl-2-piperidone]
- IC50 (dipeptidyl peptidase IV): 3900 nM

Structure (SMILES): N[C@H]1CCCN(P(=O)(Nc2ccccc2)Nc2ccccc2)C1=O [Example 11, (3S)-3-amino-1-bis(phenylamino)phosphinyl-2-piperidone]
- IC50 (dipeptidyl peptidase IV): 43600 nM

Structure (SMILES): CCCNP(N)(=O)N1CCC[C@H](N)C1=O (mixture of isomers) [Example 15, (3S, P (RS))-3-amino-1-amino(n-propylamino)phosphinyl-2-piperidone]
- IC50 (dipeptidyl peptidase IV): 7260 nM

Structure (SMILES): N[C@H]1CCCN(P(N)(=O)NC(=O)CCc2ccccc2)C1=O (mixture of isomers) [Example 59, (3S, P (SR))-3-amino-1-amino(3-phenylpropanoylamino)phosphinyl-2-piperidone]
- IC50 (dipeptidyl peptidase IV): 894 nM

Structure (SMILES): CCCCN[C@H]1CCCN(P(N)(N)=O)C1=O [Example 31, (3S)-3-n-butylamino-1-diaminophosphinyl-2-piperidone]
- IC50 (dipeptidyl peptidase IV): 3750 nM

Structure (SMILES): N[C@H]1CCCN(P(N)(N)=O)C1=O [Example 1, (3S)-3-amino-1-diaminophosphinyl-2-piperidone]
- number of leukocytes ([2]; 30 mg/kg/day i.v. Days 1 to 5, Day 0 (before cyclophosphamide)): 33 ± 7.8 ×100/millimeter cube
- number of leukocytes ([2]; 30 mg/kg/day i.v. Days 1 to 5, Day 2): 23 ± 14.2 ×100/millimeter cube
- number of leukocytes ([2]; 30 mg/kg/day i.v. Days 1 to 5, Day 4): 7 ± 1.8 ×100/millimeter cube
- number of leukocytes ([2]; 30 mg/kg/day i.v. Days 1 to 5, Day 6): 25 ± 6.2 ×100/millimeter cube
- number of leukocytes ([2]; 30 mg/kg/day i.v. Days 1 to 5, Day 8): 108 ± 52.8 ×100/millimeter cube
- number of leukocytes ([2]; 30 mg/kg/day i.v. Days 1 to 5, Day 10): 58 ± 16.1 ×100/millimeter cube
- number of leukocytes relative to Day 0 ([2]; 30 mg/kg/day, Day 0): 100%
- number of leukocytes relative to Day 0 ([2]; 30 mg/kg/day, Day 2): 70%
- number of leukocytes relative to Day 0 ([2]; 30 mg/kg/day, Day 4): 21%
- number of leukocytes relative to Day 0 ([2]; 30 mg/kg/day, Day 6): 76%
- number of leukocytes relative to Day 0 ([2]; 30 mg/kg/day, Day 8): 327%
- number of leukocytes relative to Day 0 ([2]; 30 mg/kg/day, Day 10): 176%
- number of leukocytes ([2]; 100 mg/kg/day i.v. Days 1 to 5, Day 0 (before cyclophosphamide)): 81 ± 38.7 ×100/millimeter cube
- number of leukocytes ([2]; 100 mg/kg/day i.v. Days 1 to 5, Day 2): 25 ± 8.3 ×100/millimeter cube
- number of leukocytes ([2]; 100 mg/kg/day i.v. Days 1 to 5, Day 4): 13 ± 6.8 ×100/millimeter cube
- number of leukocytes ([2]; 100 mg/kg/day i.v. Days 1 to 5, Day 6): 124 ± 144.2 ×100/millimeter cube
- number of leukocytes ([2]; 100 mg/kg/day i.v. Days 1 to 5, Day 8): 139 ± 36.7 ×100/millimeter cube
- number of leukocytes ([2]; 100 mg/kg/day i.v. Days 1 to 5, Day 10): 49 ± 7.3 ×100/millimeter cube
- number of leukocytes relative to Day 0 ([2]; 100 mg/kg/day, Day 0): 100%
- number of leukocytes relative to Day 0 ([2]; 100 mg/kg/day, Day 2): 31%
- number of leukocytes relative to Day 0 ([2]; 100 mg/kg/day, Day 4): 16%
- number of leukocytes relative to Day 0 ([2]; 100 mg/kg/day, Day 6): 153%
- number of leukocytes relative to Day 0 ([2]; 100 mg/kg/day, Day 8): 172%
- number of leukocytes relative to Day 0 ([2]; 100 mg/kg/day, Day 10): 60%
- effect in increasing the number of leukocytes (in words) ([2]; data on Day 8): very effective in increasing the number of leukocytes
- recovery of the number of leukocytes to the initial value after the administration of cyclophosphamide ([2]; groups treated with 30 and 100 mg/kg/day, control group requires 8 days): 6 days
- IC50 (dipeptidyl peptidase IV): 88.5 nM

Structure (SMILES): N[C@H]1CCCN([P@@](N)(=O)NS(=O)(=O)O)C1=O [sulphostin, (3S, PR)-3-amino-1-amino(sulfoamino)phosphinyl-2-piperidone, reference compound]
- number of platelets as compared with the control group ([1]; 50 mg/kg/day, decreased): 73%
- Number of platelets [1, 4]: 57.1 ± 5.1 ×10000/millimeter cube
- number of leukocytes [1, 4]: 15 ± 5 ×100/millimeter cube
